“And” between values parts separate entries of the source, which are not always exact repeats. Identical values can stand only once. “Also recorded” adds a separate entry of the source. Like-named read-outs stand apart in the source and are kept apart here.
Assays:
[1] = system: CYP1A2; assay: in vitro; type: in vitro ADME, human; conditions: 48 h
[2] = target: human MATE2‐K (Homo sapiens, UniProt Q86VL8); assay: Transporter inhibition, uptake assay; type: in vitro ADME
[3] = target: CYP3A4 (Homo sapiens, UniProt P08684); assay: CYP inhibition in pooled human liver microsomes, midazolam or testosterone probe; type: in vitro ADME; conditions: for IC50: read-out: IC50, No preincubation, pooled HLMs, n = 3
[4] = target: CYP2D6 (Homo sapiens, UniProt P10635); assay: CYP inhibition in pooled human liver microsomes, dextromethorphan probe; type: in vitro ADME; conditions: read-out: IC50, No preincubation; CYP2D6, pooled HLMs, n = 3
[5] = system: CYP isoforms (1A2, 2B6, 2C8, 2C9, 2C19, 2D6, 3A4); assay: Time‐dependent and mechanism‐based CYP inhibition; type: in vitro ADME, human; conditions: 30 min preincubation in absence and presence of NADPH
[6] = target: human MDR1 (Homo sapiens, UniProt P08183); assay: Transporter inhibition, vesicular transport assay; type: in vitro ADME
[7] = target: T1, human OATP1B3 (Homo sapiens, UniProt Q9NPD5); assay: Transporter inhibition, uptake assay; type: in vitro ADME
T1 sequence (Q9NPD5 1-702): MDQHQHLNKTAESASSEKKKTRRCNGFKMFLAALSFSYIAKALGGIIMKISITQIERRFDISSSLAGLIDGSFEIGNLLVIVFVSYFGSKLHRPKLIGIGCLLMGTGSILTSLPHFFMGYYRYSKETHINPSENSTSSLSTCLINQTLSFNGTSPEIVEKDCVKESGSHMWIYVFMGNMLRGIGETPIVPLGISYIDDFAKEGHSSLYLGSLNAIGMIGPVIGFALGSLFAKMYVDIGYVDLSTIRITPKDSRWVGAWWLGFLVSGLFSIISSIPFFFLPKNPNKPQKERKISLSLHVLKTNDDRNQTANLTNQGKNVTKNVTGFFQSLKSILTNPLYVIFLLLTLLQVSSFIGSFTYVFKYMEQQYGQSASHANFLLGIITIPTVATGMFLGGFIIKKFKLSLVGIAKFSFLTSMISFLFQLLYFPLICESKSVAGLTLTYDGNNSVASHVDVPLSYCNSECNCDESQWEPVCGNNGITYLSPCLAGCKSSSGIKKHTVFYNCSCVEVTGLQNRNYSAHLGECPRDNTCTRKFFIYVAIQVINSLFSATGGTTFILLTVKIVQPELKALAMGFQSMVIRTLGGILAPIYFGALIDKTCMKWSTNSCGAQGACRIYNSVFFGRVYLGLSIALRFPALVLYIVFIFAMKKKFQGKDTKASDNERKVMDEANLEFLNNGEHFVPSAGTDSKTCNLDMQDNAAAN

[8] = target: CYP2B6 (Homo sapiens, UniProt P20813); type: in vitro ADME; conditions: read-out: IC50, No preincubation; CYP2B6, pooled HLMs, n = 3
[9] = system: CYP2B6; assay: in vitro; type: in vitro ADME, human; conditions: 48 h

CYP3A4, sequence (P08684 whole entry): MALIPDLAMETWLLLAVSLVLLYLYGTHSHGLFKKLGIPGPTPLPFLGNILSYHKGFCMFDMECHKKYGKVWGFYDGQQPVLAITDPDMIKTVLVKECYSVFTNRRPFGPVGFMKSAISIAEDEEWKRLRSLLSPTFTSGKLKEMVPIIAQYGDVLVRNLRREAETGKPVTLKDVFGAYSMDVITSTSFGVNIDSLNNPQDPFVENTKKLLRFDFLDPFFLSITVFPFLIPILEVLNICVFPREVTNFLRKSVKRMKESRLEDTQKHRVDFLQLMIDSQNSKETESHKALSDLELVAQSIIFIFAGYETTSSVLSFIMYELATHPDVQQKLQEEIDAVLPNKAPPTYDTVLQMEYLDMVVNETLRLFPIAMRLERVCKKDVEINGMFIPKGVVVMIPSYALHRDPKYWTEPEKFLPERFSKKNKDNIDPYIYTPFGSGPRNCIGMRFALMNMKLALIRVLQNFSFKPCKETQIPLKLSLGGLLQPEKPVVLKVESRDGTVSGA
human MATE2‐K, sequence (Q86VL8 1-566 isoform Q86VL8-3): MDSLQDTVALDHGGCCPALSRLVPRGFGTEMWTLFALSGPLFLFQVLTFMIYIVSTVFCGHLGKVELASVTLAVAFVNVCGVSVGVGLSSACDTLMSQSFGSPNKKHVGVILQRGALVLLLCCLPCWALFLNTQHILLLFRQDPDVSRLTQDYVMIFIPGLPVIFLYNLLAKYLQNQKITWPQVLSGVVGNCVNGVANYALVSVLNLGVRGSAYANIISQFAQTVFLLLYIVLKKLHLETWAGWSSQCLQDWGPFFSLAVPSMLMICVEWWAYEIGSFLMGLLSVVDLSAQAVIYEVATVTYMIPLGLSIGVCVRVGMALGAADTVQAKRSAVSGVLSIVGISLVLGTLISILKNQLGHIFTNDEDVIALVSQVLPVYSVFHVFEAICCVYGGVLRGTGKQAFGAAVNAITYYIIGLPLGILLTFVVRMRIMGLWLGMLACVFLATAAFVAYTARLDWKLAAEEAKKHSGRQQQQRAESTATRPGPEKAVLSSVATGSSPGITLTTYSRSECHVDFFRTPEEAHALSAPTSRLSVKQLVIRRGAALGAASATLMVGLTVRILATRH
human MDR1, sequence (P08183 whole entry): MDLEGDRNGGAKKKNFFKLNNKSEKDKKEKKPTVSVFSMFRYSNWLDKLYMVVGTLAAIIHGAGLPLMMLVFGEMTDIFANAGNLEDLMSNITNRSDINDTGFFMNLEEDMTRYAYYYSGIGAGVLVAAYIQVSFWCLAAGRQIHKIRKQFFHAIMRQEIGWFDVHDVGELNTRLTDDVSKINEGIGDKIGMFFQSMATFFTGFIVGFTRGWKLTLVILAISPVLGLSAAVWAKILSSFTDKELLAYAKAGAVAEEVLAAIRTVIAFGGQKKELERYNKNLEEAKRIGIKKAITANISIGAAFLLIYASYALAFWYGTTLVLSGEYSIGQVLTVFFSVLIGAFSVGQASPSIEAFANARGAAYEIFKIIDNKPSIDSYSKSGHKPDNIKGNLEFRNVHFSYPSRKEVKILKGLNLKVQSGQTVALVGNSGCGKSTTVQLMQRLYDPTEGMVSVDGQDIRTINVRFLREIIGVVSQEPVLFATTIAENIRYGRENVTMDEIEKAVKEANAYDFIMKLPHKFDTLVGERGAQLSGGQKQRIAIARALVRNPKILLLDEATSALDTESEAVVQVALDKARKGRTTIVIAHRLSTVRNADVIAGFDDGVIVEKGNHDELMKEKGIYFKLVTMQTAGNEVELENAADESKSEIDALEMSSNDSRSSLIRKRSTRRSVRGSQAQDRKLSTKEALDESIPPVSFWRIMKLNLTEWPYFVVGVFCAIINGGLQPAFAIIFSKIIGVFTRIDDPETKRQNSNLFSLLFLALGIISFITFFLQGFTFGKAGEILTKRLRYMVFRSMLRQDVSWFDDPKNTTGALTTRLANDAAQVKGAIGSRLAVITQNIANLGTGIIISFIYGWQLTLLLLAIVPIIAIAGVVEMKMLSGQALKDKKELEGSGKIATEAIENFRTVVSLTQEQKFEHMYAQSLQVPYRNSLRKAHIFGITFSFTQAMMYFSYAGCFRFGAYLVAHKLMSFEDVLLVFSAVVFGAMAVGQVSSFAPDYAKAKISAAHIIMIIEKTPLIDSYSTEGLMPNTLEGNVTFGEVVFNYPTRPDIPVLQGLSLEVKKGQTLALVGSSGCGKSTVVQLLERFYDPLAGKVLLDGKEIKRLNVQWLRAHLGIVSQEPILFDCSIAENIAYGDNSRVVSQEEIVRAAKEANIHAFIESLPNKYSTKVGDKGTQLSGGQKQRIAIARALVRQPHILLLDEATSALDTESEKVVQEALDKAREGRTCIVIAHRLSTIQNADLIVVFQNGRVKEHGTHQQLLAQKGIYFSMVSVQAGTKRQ
CYP2D6, sequence (P10635 whole entry, canonical isoform): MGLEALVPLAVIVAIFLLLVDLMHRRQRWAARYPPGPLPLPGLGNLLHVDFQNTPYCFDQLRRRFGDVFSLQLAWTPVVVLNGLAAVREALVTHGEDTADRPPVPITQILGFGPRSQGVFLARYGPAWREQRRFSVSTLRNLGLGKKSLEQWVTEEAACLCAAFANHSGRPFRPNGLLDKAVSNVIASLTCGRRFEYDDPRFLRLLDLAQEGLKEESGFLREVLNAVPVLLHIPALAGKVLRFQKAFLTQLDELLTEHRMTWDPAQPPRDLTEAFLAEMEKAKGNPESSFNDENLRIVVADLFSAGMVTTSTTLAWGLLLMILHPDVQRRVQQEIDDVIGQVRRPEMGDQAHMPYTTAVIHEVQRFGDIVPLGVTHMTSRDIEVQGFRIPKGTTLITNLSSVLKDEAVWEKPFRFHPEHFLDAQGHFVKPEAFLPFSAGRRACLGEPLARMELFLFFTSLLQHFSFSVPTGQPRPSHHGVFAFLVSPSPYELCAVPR
CYP2B6 (Homo sapiens, UniProt P20813), sequence (P20813 whole entry): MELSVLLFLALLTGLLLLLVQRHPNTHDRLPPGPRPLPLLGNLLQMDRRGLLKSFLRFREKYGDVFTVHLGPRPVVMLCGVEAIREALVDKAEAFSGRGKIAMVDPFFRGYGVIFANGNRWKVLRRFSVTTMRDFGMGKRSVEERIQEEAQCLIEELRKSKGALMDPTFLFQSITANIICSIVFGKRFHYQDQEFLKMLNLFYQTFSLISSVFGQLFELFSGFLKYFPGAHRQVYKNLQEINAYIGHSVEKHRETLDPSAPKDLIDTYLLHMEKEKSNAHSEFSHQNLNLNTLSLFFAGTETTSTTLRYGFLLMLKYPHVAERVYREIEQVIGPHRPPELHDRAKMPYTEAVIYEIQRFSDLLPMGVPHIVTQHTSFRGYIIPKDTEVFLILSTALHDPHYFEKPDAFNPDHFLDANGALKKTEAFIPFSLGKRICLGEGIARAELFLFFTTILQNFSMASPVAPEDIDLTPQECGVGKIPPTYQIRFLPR

CC1=N[C@]2(C(=O)CO)[C@@H](C[C@H]3[C@@H]4C[C@@H](O)C5=CC(=O)C=C[C@]5(C)[C@H]4[C@@H](O)C[C@@]32C)O1 [6β‐OH‐21‐desDFZ, 6β‐Hydroxy‐21‐desacetyl deflazacort]
CYP1A2 enzyme activity fold induction ([1]; donor one, 0.002 µM): 0.783 fold
CYP1A2 mRNA fold induction ([1]; donor one, 0.002 µM): 0.657 fold
CYP1A2 enzyme activity fold induction ([1]; donor one, 0.01 µM): 0.671 fold
CYP1A2 mRNA fold induction ([1]; donor one, 0.01 µM): 0.735 fold
CYP1A2 enzyme activity fold induction ([1]; donor one, 0.05 µM): 0.649 fold
CYP1A2 mRNA fold induction ([1]; donor one, 0.05 µM): 0.735 fold
CYP1A2 enzyme activity fold induction ([1]; donor one, 0.25 µM): 0.753 fold
CYP1A2 mRNA fold induction ([1]; donor one, 0.25 µM): 0.667 fold
CYP1A2 enzyme activity fold induction ([1]; donor one, 5 µM): 0.770 fold
CYP1A2 mRNA fold induction ([1]; donor one, 5 µM): 0.628 fold
CYP1A2 enzyme activity fold induction ([1]; donor one, 10 µM): 0.772 fold
CYP1A2 mRNA fold induction ([1]; donor one, 10 µM): 0.619 fold
CYP1A2 enzyme activity fold induction ([1]; donor one, 20 µM): 0.699 fold
CYP1A2 mRNA fold induction ([1]; donor one, 20 µM): 0.741 fold
CYP1A2 enzyme activity fold induction ([1]; donor three, 0.002 µM): 1.01 fold
CYP1A2 mRNA fold induction ([1]; donor three, 0.002 µM): 0.665 fold
CYP1A2 enzyme activity fold induction ([1]; donor three, 0.01 µM): 0.892 fold
CYP1A2 mRNA fold induction ([1]; donor three, 0.01 µM): 0.744 fold
CYP1A2 enzyme activity fold induction ([1]; donor three, 0.05 µM): 0.812 fold
CYP1A2 mRNA fold induction ([1]; donor three, 0.05 µM): 0.701 fold
CYP1A2 enzyme activity fold induction ([1]; donor three, 0.25 µM): 0.747 fold
CYP1A2 mRNA fold induction ([1]; donor three, 0.25 µM): 0.610 fold
CYP1A2 enzyme activity fold induction ([1]; donor three, 5 µM): 0.870 fold
CYP1A2 mRNA fold induction ([1]; donor three, 5 µM): 0.635 fold
CYP1A2 enzyme activity fold induction ([1]; donor three, 10 µM): 0.954 fold
CYP1A2 mRNA fold induction ([1]; donor three, 10 µM): 0.647 fold
CYP1A2 enzyme activity fold induction ([1]; donor three, 20 µM): 0.955 fold
CYP1A2 mRNA fold induction ([1]; donor three, 20 µM): 0.723 fold
CYP1A2 enzyme activity fold induction ([1]; donor two, 0.002 µM): 0.913 fold
CYP1A2 mRNA fold induction ([1]; donor two, 0.002 µM): 0.978 fold
CYP1A2 enzyme activity fold induction ([1]; donor two, 0.01 µM): 0.880 fold
CYP1A2 mRNA fold induction ([1]; donor two, 0.01 µM): 0.871 fold
CYP1A2 enzyme activity fold induction ([1]; donor two, 0.05 µM): 0.838 fold
CYP1A2 mRNA fold induction ([1]; donor two, 0.05 µM): 0.928 fold
CYP1A2 enzyme activity fold induction ([1]; donor two, 0.25 µM): 0.832 fold
CYP1A2 mRNA fold induction ([1]; donor two, 0.25 µM): 0.979 fold
CYP1A2 enzyme activity fold induction ([1]; donor two, 5 µM): 1.18 fold
CYP1A2 mRNA fold induction ([1]; donor two, 5 µM): 0.786 fold
CYP1A2 enzyme activity fold induction ([1]; donor two, 10 µM): 1.07 fold
CYP1A2 mRNA fold induction ([1]; donor two, 10 µM): 0.840 fold
CYP1A2 enzyme activity fold induction ([1]; donor two, 20 µM): 1.18 fold
CYP1A2 mRNA fold induction ([1]; donor two, 20 µM): 0.886 fold
Maximum inhibition at 50 µM ([2]; MATE2‐K UPT, n = 3): 26 % of control
inhibitory interaction with transporter ([2]; MATE2‐K, up to 50 µM): no inhibitory interaction
estimated plasma Cmax/IC50 ratio ([3]; CYP3A4, Cmax 0.34 µM, assumed 100% free): 0.01
IC50 ([3]; CYP3A4 (Midazolam)): ~35 µM and ≥ 20 µM
IC50 ([3]; CYP3A4 (Midazolam), listed as 6β‐hydroxy‐21‐desacetyl deflazacort): 35 µM
IC50 ([3]; CYP3A4 (Testosterone)): > 50 µM
IC50 [4]: > 50 µM
time‐dependent or mechanism‐based inhibition (IC50 shift) [5]: neither time‐dependent nor metabolism‐based; also recorded: did not appear to be a time‐dependent or mechanism‐based inhibitor
estimated plasma Cmax/IC50 ratio ([6]; MDR1, Cmax 0.34 µM, assumed 100% free): 0.017
Maximum inhibition at 50 µM ([6]; MDR1 VT, n = 3): 78 % of control
estimated plasma Cmax/IC50 ratio ([7]; OATP1B3, Cmax 0.34 µM, assumed 100% free): 0.008
Maximum inhibition at 50 µM ([7]; OATP1B3 UPT, n = 3): 57 % of control
IC50 ([7]; OATP1B3 UPT, brackets: 95% confidence interval): 42.2 µM
IC50 [8]: > 50 µM
CYP2B6 enzyme activity fold induction ([9]; donor one, 0.002 µM): 0.921 fold
CYP2B6 mRNA fold induction ([9]; donor one, 0.002 µM): 0.680 fold
CYP2B6 enzyme activity fold induction ([9]; donor one, 0.01 µM): 0.826 fold
CYP2B6 mRNA fold induction ([9]; donor one, 0.01 µM): 0.750 fold
CYP2B6 enzyme activity fold induction ([9]; donor one, 0.05 µM): 0.767 fold
CYP2B6 mRNA fold induction ([9]; donor one, 0.05 µM): 0.736 fold
CYP2B6 enzyme activity fold induction ([9]; donor one, 0.25 µM): 0.752 fold
CYP2B6 mRNA fold induction ([9]; donor one, 0.25 µM): 0.794 fold
CYP2B6 enzyme activity fold induction ([9]; donor one, 5 µM): 0.832 fold
CYP2B6 mRNA fold induction ([9]; donor one, 5 µM): 0.616 fold
CYP2B6 enzyme activity fold induction ([9]; donor one, 10 µM): 0.814 fold
CYP2B6 mRNA fold induction ([9]; donor one, 10 µM): 0.663 fold
CYP2B6 enzyme activity fold induction ([9]; donor one, 20 µM): 0.896 fold
CYP2B6 mRNA fold induction ([9]; donor one, 20 µM): 0.756 fold
CYP2B6 enzyme activity fold induction ([9]; donor three, 0.002 µM): 0.836 fold
CYP2B6 mRNA fold induction ([9]; donor three, 0.002 µM): 0.704 fold
CYP2B6 enzyme activity fold induction ([9]; donor three, 0.01 µM): 0.829 fold
CYP2B6 mRNA fold induction ([9]; donor three, 0.01 µM): 0.745 fold
CYP2B6 enzyme activity fold induction ([9]; donor three, 0.05 µM): 0.829 fold
CYP2B6 mRNA fold induction ([9]; donor three, 0.05 µM): 0.721 fold
CYP2B6 enzyme activity fold induction ([9]; donor three, 0.25 µM): 0.810 fold
CYP2B6 mRNA fold induction ([9]; donor three, 0.25 µM): 0.726 fold
CYP2B6 enzyme activity fold induction ([9]; donor three, 5 µM): 1.01 fold
CYP2B6 mRNA fold induction ([9]; donor three, 5 µM): 0.791 fold
CYP2B6 enzyme activity fold induction ([9]; donor three, 10 µM): 1.13 fold
CYP2B6 mRNA fold induction ([9]; donor three, 10 µM): 0.806 fold
CYP2B6 enzyme activity fold induction ([9]; donor three, 20 µM): 1.08 fold
CYP2B6 mRNA fold induction ([9]; donor three, 20 µM): 0.840 fold
CYP2B6 enzyme activity fold induction ([9]; donor two, 0.002 µM): 0.960 fold
CYP2B6 mRNA fold induction ([9]; donor two, 0.002 µM): 0.643 fold
CYP2B6 enzyme activity fold induction ([9]; donor two, 0.01 µM): 0.895 fold
CYP2B6 mRNA fold induction ([9]; donor two, 0.01 µM): 0.522 fold
CYP2B6 enzyme activity fold induction ([9]; donor two, 0.05 µM): 0.944 fold
CYP2B6 mRNA fold induction ([9]; donor two, 0.05 µM): 0.571 fold
CYP2B6 enzyme activity fold induction ([9]; donor two, 0.25 µM): 0.963 fold
CYP2B6 mRNA fold induction ([9]; donor two, 0.25 µM): 0.622 fold
CYP2B6 enzyme activity fold induction ([9]; donor two, 5 µM): 1.22 fold
CYP2B6 mRNA fold induction ([9]; donor two, 5 µM): 0.515 fold
CYP2B6 enzyme activity fold induction ([9]; donor two, 10 µM): 1.20 fold
CYP2B6 mRNA fold induction ([9]; donor two, 10 µM): 0.596 fold
CYP2B6 enzyme activity fold induction ([9]; donor two, 20 µM): 1.40 fold
CYP2B6 mRNA fold induction ([9]; donor two, 20 µM): 0.809 fold
induction of CYP2B6 (mRNA or enzyme activity), conclusion ([9]; human hepatocytes, three donors): no meaningful concentration‐dependent induction; also recorded: did not appear to be an inducer; also recorded: did not induce

From publication PMC7982320 (Pharmacology Research & Perspectives, 2021)
